Where a SMILES comes first, the peptide text is derived from it. [ ]: non-standard residue; d: D form. The star is where a group is joined. DON = [N-]=[N+]=CC(=O)CC[C@H](N)C(=O)O; Cbz = O=C(OCc1ccccc1)*
Assays:
hTG2 [1] = biological target: T1, hTG2 (Homo sapiens, UniProt P21980); assay: In vitro GTP binding assay (BODIPY GTP-γ-S fluorescence); settings: inhibitor 2×KI, 30 minutes at 25° C.; 3 μM BODIPY GTP-γ-S
T1 sequence (P21980 1-687): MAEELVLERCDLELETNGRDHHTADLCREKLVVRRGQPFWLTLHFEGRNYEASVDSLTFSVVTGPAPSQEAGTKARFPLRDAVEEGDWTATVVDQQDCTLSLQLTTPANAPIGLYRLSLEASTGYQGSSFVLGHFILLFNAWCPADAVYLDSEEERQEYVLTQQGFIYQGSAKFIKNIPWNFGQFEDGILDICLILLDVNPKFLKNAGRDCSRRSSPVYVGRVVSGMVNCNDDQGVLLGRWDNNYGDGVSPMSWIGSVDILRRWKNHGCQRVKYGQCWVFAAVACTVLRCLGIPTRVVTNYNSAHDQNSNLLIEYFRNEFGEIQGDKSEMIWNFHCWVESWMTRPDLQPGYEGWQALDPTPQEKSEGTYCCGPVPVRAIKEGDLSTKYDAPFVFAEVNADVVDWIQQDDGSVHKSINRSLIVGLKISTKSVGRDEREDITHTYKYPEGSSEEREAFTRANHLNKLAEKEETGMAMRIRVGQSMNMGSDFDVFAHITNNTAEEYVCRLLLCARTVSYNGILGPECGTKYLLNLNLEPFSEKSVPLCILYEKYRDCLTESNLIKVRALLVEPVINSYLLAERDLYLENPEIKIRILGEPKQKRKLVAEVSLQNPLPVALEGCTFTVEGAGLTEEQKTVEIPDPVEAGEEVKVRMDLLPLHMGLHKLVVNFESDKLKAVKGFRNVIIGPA
Description: Previously we proposed a mechanism of action for the NC9, VA4 and AA9 inhibitors based on their ability to react covalently with the open conformation of TG2, locking the enzyme in that conformation and thereby abolishing the enzyme's ability to bind GTP and act as a G-protein. […] We used the same in vitro GTP binding assay to measure the ability of representative phenylacetyl inhibitors 67 and 72 to abolish GTP binding, as follows:
In vitro GTP binding assay. GTP binding was measured using a method similar to that reported previously (McEwen, D. P. et al., “Fluorescent BODIPY-GTP analogs: Real-time measurement of nucleotide binding to G proteins.” Anal. Biochem. 2001, 291 (1), 109-117). […] The buffer was then exchanged to 100 mM MOPS (pH=7.0), 1 mM EGTA and 5 mM MgCl2 to remove calcium via dialysis using a 10-kDa molecular weight cut off membrane. The fluorescent GTP analog was added to give a final concentration of 3.0 μM and fluorescence was measured on a microplate reader after 10 minutes of incubation (Ex/Em: 490/520 nm).

[2] = system: TG2 relative to other human transglutaminases; settings: shown previously (Akbar et al. 2017); cited from earlier work
SCC-13 cells = settings: shown previously; read-out: concentration reducing ECS cell invasion through Matrigel by ~50% relative to vehicle-treated cells; cited from earlier work
hTG2 [3] = biological target: T1, hTG2; settings: shown previously; cited from earlier work
[4] = system: glioblastoma multiforme (GBM) cell lines; settings: Zhang et al. 2013; cited from earlier work

SMILES: C=CC(=O)NCCCC[C@H](NC(=O)Cc1ccccc1)C(=O)N1CCN(C(=O)c2cccc3ccccc23)CC1 [Inhibitor 67, (S)-N-(6-(4-(1-naphthoyl)piperazin-1-yl)-6-oxo-5-(2-phenylacetamido)hexyl)acrylamide]
- inhibition of GTP binding of hTG2 (hTG2 [1]): abolished the GTP binding ability

SMILES: C=CC(=O)NCCCC[C@H](NC(=O)OCc1ccccc1)C(=O)NCCOCCOCCNS(=O)(=O)c1cccc2c(N(C)C)cccc12 [NC9]
- selectivity for TG2 compared to the other major transglutaminase isozymes [2]: good selectivity for TG2
- EC50 (SCC-13 cells): ~20 µM

SMILES: C=CC(=O)NCCCC[C@H](NC(=O)OCc1ccccc1)C(=O)N1CCN(S(=O)(=O)c2cccc3c(N(C)C)cccc23)CC1 [VA4]
- suppression of TG2 binding of GTP-γ-S-FL BODIPY (hTG2 [3]): suppress the ability of TG2 to bind GTP-γ-S-FL BODIPY
- selectivity for TG2 compared to the other major transglutaminase isozymes [2]: good selectivity for TG2
- EC50 (SCC-13 cells): 3.9 µM

SMILES: COC(=O)[C@H](CC(C)C)NC(=O)[C@@H]1CCCN1C(=O)[C@@H](NC(=O)[C@H](CCC(=O)C=[N+]=[N-])NC(=O)OCc1ccccc1)C(C)C [Z-DON] (Cbz-[DON]VPL-OMe)
- proliferation of GBM cell lines [4]: reduce proliferation in two out of three

SMILES: CN(C)c1cccc2c(S(=O)(=O)NCCCCCN)cccc12 [monodansylcadaverine]
- proliferation of GBM cell lines [4]: reduce proliferation in two out of three
